Experimental data reported in ChEMBL document CHEMBL1201862, “PubChem BioAssay data set” (2004).
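How tested: cells in 96-well plates exposed to compound for 48 hours at five concentrations. GI50 = concentration required for 50% inhibition of growth.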 The source made the active and inactive calls. Cut-off read from the data, not from the text of the source: active = GI50 up to about 1.1 µM and inactive = higher.

Experiments:
Experiment in all cases: inhibition of tumour cell growth, NCI panel, 48 h
[1] = system: SK-MEL-28
[2] = system: SK-MEL-2
[3] = system: SW-620
[4] = system: HT-29
[5] = system: RPMI-8226
[6] = system: SNB-75
[7] = system: MDA-MB-435
[8] = system: A549
[9] = system: BT-549
[10] = system: SF-295
[11] = system: NCI-H23
[12] = system: K562
[13] = system: Hs-578T
[14] = system: KM12
[15] = system: OVCAR-3
[16] = system: ACHN
[17] = system: HCC 2998
[18] = system: UACC-62
[19] = system: LOX IMVI

For `O/N=C1\CC2(N3CCOCC3)CCC1(c1ccccc1)CC2`, the GI50 [1] was > 100 µM (inactive), the GI50 [2] was > 100 µM (inactive) and the GI50 [3] was > 100 µM (inactive). The GI50 [4] was > 100 µM (inactive), the GI50 [5] was > 100 µM (inactive) and the GI50 [6] was > 100 µM (inactive). The GI50 [7] was > 100 µM (inactive), the GI50 [8] was > 100 µM (inactive) and the GI50 [9] was > 100 µM (inactive). For the same compound, the GI50 [10] was > 100 µM (inactive), the GI50 [11] was > 100 µM (inactive) and the GI50 [12] was > 100 µM (inactive). For the same compound, the GI50 [13] was > 100 µM (inactive), the GI50 [14] was > 100 µM (inactive) and the GI50 [15] was > 100 µM (inactive). For the same compound, the GI50 [16] was > 100 µM (inactive), the GI50 [17] was > 100 µM (inactive) and the GI50 [18] was > 100 µM (inactive). The GI50 [19] was > 100 µM (inactive).

For `COC(=O)c1ccccc1C1CN=NC12Cc1cccc(C)c1C2=O` (centres undefined), the GI50 [1] was 68.2 µM (inactive), the GI50 [2] was 46.1 µM (inactive) and the GI50 [3] was > 100 µM (inactive). The GI50 [4] was 57.7 µM (inactive), the GI50 [5] was 29 µM (inactive) and the GI50 [6] was 33.3 µM (inactive). For the same compound, the GI50 [7] was 37.4 µM (inactive), the GI50 [8] was 39.3 µM (inactive) and the GI50 [9] was 42.4 µM (inactive). The GI50 [10] was 34.4 µM (inactive), the GI50 [11] was 51.9 µM (inactive) and the GI50 [12] was 53.1 µM (inactive). The GI50 [13] was 40.4 µM (inactive), the GI50 [14] was 26.8 µM (inactive) and the GI50 [15] was 22.1 µM (inactive). For the same compound, the GI50 [16] was 35.3 µM (inactive), the GI50 [17] was > 100 µM (inactive) and the GI50 [18] was 34.7 µM (inactive). For the same compound, the GI50 [19] was 55 µM (inactive).

In the case of `CCOC(=O)N1CC2(C)C=CC1C(C(=O)OC)C2` (centres undefined), the GI50 [1] is reported as > 100 µM (inactive), the GI50 [2] is reported as > 100 µM (inactive) and the GI50 [3] is reported as > 100 µM (inactive). For the same compound, the GI50 [4] was > 100 µM (inactive), the GI50 [5] was > 100 µM (inactive) and the GI50 [6] was > 100 µM (inactive). The GI50 [7] was > 100 µM (inactive), the GI50 [8] was > 100 µM (inactive) and the GI50 [9] was > 100 µM (inactive). For the same compound, the GI50 [10] was > 100 µM (inactive), the GI50 [11] was > 100 µM (inactive) and the GI50 [12] was > 100 µM (inactive). The GI50 [13] was > 100 µM (inactive), the GI50 [14] was > 100 µM (inactive) and the GI50 [15] was > 100 µM (inactive). For the same compound, the GI50 [16] was > 100 µM (inactive), the GI50 [17] was > 100 µM (inactive) and the GI50 [18] was > 100 µM (inactive). The GI50 [19] was > 100 µM (inactive).

With `O=C(CCc1cc(O)cc(O)c1)NCCc1cc(OCc2ccccc2)cc(OCc2ccccc2)c1` the GI50 [1] was 17.5 µM (inactive), the GI50 [2] was 10.2 µM (inactive) and the GI50 [3] was 15.8 µM (inactive). For the same compound, the GI50 [4] was 14.8 µM (inactive), the GI50 [5] was 7.45 µM (inactive) and the GI50 [6] was 11 µM (inactive). For the same compound, the GI50 [7] was 11.1 µM (inactive), the GI50 [8] was 5.28 µM (inactive) and the GI50 [9] was 16.4 µM (inactive). For the same compound, the GI50 [10] was 10.4 µM (inactive), the GI50 [11] was 10.4 µM (inactive) and the GI50 [12] was 4.8 µM (inactive). For the same compound, the GI50 [13] was 16.8 µM (inactive), the GI50 [14] was 12.6 µM (inactive) and the GI50 [15] was 14.7 µM (inactive). For the same compound, the GI50 [16] was 3.4 µM (inactive), the GI50 [17] was 19.6 µM (inactive) and the GI50 [18] was 16.9 µM (inactive). The GI50 [19] was 11.5 µM (inactive).

For `COc1ccc(CCNC2=CC(=O)c3ncccc3C2=O)cc1OC`, the GI50 [1] was 1.47 µM (inactive), the GI50 [2] was 1.48 µM (inactive) and the GI50 [3] was 1.68 µM (inactive). The GI50 [4] was 2.12 µM (inactive), the GI50 [5] was 5.57 µM (inactive) and the GI50 [6] was 0.748 µM (active). The GI50 [7] was 0.471 µM (active), the GI50 [8] was 0.918 µM (active) and the GI50 [9] was 1.3 µM (inactive). The GI50 [10] was 0.794 µM (active), the GI50 [11] was 0.346 µM (active) and the GI50 [12] was 2.24 µM (inactive). For the same compound, the GI50 [13] was 1.19 µM (inactive), the GI50 [14] was 3.59 µM (inactive) and the GI50 [15] was 0.514 µM (active). The GI50 [16] was 3.67 µM (inactive), the GI50 [17] was 1.94 µM (inactive) and the GI50 [18] was 0.435 µM (active). The GI50 [19] was 0.426 µM (active).

`CC(C)[Si](OCC/C=C/C1CCC(=O)C1C(O)C1CCCCC1)(C(C)C)C(C)C` (centres undefined) was tested, and the GI50 [1] was 15.1 µM (inactive), the GI50 [2] was 12.9 µM (inactive) and the GI50 [3] was 16 µM (inactive). For the same compound, the GI50 [4] was 13.2 µM (inactive), the GI50 [5] was 13.7 µM (inactive) and the GI50 [6] was 15.2 µM (inactive). The GI50 [7] was 17.9 µM (inactive), the GI50 [8] was 13.8 µM (inactive) and the GI50 [9] was 18.9 µM (inactive). For the same compound, the GI50 [10] was 16 µM (inactive), the GI50 [11] was 15.6 µM (inactive) and the GI50 [12] was 17.2 µM (inactive). The GI50 [13] was 18.1 µM (inactive), the GI50 [14] was 15.9 µM (inactive) and the GI50 [15] was 16.5 µM (inactive). For the same compound, the GI50 [16] was 14.8 µM (inactive), the GI50 [17] was 8.99 µM (inactive) and the GI50 [18] was 14.9 µM (inactive). For the same compound, the GI50 [19] was 17.1 µM (inactive).
